# Read-outs that look alike come from different tables or passages of the source.
# Legend:
# [1] = test system: c-Myc oncoprotein, SUPB13; test: c-Myc oncoprotein expression, western blotting; format: cell-based
# Protocol: (§1) The expression of c-Myc was assessed by immunoblots as previously described. In brief, cells (10^6) were treated and harvested at various time intervals, and whole-cell pellets were lysed with detergent lysis buffer (1 ml/10^7 cells, 50 mM Tris-HCl buffer, pH 8.0, 150 mM NaCl, 1 mM DTT, 0.5 mM EDTA, 1% Nonidet® P40, 0.5% sodium deoxycholate, 0.1% sodium dodecylsulfate, 100 μg/ml phenylmethylsulfonyl fluoride, 1 μg/ml aprotinin, 2 μg/ml leupeptin and 100 μM sodium vanadate) to obtain protein lysates. Protein concentrations were quantified using a bicinchoninic acid kit. Since c-Myc is a labile protein, cell lysates were not frozen, but stored at 4° C., until all protein lysates were prepared for a particular cell line, and then western blots were performed immediately. Total protein ([…]) was separated by 10% SDS-PAGE, electroblotted to PVDF membranes, and blocked overnight with 5% nonfat dry milk. The membrane was incubated with a solution of the primary antibody (2.5 μg/ml), prepared in 1% blocking solution, for 2 h at room temperature, washed three-times for 15 min with PBS-T (PBS with 0.1%, v/v, Tween 20), and incubated with a 1:2500 dilution of horseradish peroxidase-conjugated secondary antibody for 30 min at 37° C. Blots were again washed three-times for 10 min each in PBS-T and developed by enhanced chemiluminescence (Amersham). Membranes were exposed to Kodak Biomax film and the resulting film was analyzed using Kodak 1D Image Analysis software. Membranes were then stripped and reprobed for the quantification of bactin.
# (§2) Cells were treated with solvent (0.1% v/v DMSO, control), brusatol (25 ng/ml) or bruceantin (10 ng/ml) for 4 or 24 h, then analyzed by western blotting. Membranes were probed for c-Myc, and then stripped and probed for β-actin as an internal control.
# (§3) Cells were treated with brusatol (25 ng/ml) or bruceantin (10 ng/ml) for 4 or 24 h, and then analyzed for c-Myc and β-actin expression using western blotting techniques. Results are expressed as percentage of c-Myc oncoprotein of control (0.1%, v/v, DMSO treated cells) values. Results were normalized relative to β-actin.
# [2] = test system: c-Myc oncoprotein, K562; test: c-Myc oncoprotein expression, western blotting; format: cell-based
# Protocol: as §1, §2, §3
# [3] = test system: c-Myc oncoprotein, NB4; test: c-Myc oncoprotein expression, western blotting; format: cell-based
# Protocol: as §1, §2, §3
# [4] = test system: c-Myc oncoprotein, Daudi; test: c-Myc oncoprotein expression, western blotting; format: cell-based
# Protocol: as §1, §2, §3
# [5] = test system: c-Myc oncoprotein, Kasumi-1; test: c-Myc oncoprotein expression, western blotting; format: cell-based
# Protocol: as §1, §2, §3
# [6] = test system: c-Myc oncoprotein, RS4;11; test: c-Myc oncoprotein expression, western blotting; format: cell-based
# Protocol: as §1, §2, §3
# [7] = test system: c-Myc oncoprotein, BV173; test: c-Myc oncoprotein expression, western blotting; format: cell-based
# Protocol: as §1, §2, §3
# [8] = test system: c-Myc oncoprotein, U937; test: c-Myc oncoprotein expression, western blotting; format: cell-based
# Protocol: as §1, §2, §3
# [9] = test system: c-Myc oncoprotein, Reh; test: c-Myc oncoprotein expression, western blotting; format: cell-based
# Protocol: as §1, §2, §3
# [10] = HL-60 cytotoxicity of quassinoids, trypan blue exclusion; format: cell-based, human; details: human
# Protocol: Induction of differentiation was determined by the ability of treated cells to produce superoxide anions (nitroblue tetrazolium (NBT)-reduction), a functional marker of mature macrophages or granulocytes. Proliferation capacity is equivalent to cell growth and was measured by incorporation of [3H]thymidine into DNA over a period of 18 h, and cytotoxic activity was evaluated by the loss of membrane integrity as shown by trypan blue exclusion. […] Although members of the brusatol and glaucarubolone series were active, when comparing members of both series that varied only in the positioning of the epoxymethano bridge, great differences were noted, as shown with yadianzolide C (5) and glaucarubolone (24), and analogues 4 (brusatol series) and 32 (glaucarubolone series).
# HL-60 (human promyelocytic) cells were tested using a 4-day incubation protocol. In brief, cells in log phase (approximately 10^6 cells/mL) were diluted to […] and preincubated overnight (18 h) in 24-well plates to allow cell-growth recovery. Then, samples dissolved in DMSO were added, keeping the final DMSO concentration at 0.1% (v/v). Control cultures were treated with the same concentration of DMSO. After 4 days of incubation, the cells were analyzed to determine the percentage of cells undergoing maturation as determined by NBT reduction. Concomitantly, the effect on viability and proliferation of HL-60 cells was determined. In each experiment, 1α, 25-dihydroxyvitamin D3 (EC50=0.01 μM) and brusatol (EC50=0.07 μM) were used as reference controls. EC50 and IC50 values were calculated using 5-7 test concentrations (in duplicate), and consistent results were obtained, indicating the data reported for the related quassinoids are reliable.
# (2) Cytotoxicity. Since loss of membrane integrity is an early feature of necrotic cells and a late feature of apoptotic cells, trypan blue, a […] blue dye, was used to stain cells with compromised plasma membranes, while leaving intact cells unstained. Cells […] of trypan blue (0.2% w/v in PBS), incubated for at least 5 min at room temperature, and counted using a hematocytometer. Viability percentages were calculated with duplicate samples.
smiles,measurement,setting,value
"COC(=O)[C@@]12OC[C@]34[C@H]([C@@H](O)[C@@H]1O)[C@@]1(C)CC(=O)C(O)=C(C)[C@@H]1C[C@H]3OC(=O)[C@H](OC(=O)C=C(C)C)[C@@H]24 [compound 1, brusatol]","c-Myc oncoprotein, percentage of control","[1]; Brusatol (25 ng/ml), 4 h",52%
same,"c-Myc oncoprotein, percentage of control","[1]; Brusatol (25 ng/ml), 24 h",41%
same,decrease of c-Myc protein levels,[2]; 4 h treatment,94%
same,"c-Myc oncoprotein, percentage of control","[2]; Brusatol (25 ng/ml), 4 h",6%
same,"c-Myc oncoprotein, percentage of control","[2]; Brusatol (25 ng/ml), 24 h",13%
same,"c-Myc oncoprotein, percentage of control","[3]; Brusatol (25 ng/ml), 4 h",0%
same,"c-Myc oncoprotein, percentage of control","[3]; Brusatol (25 ng/ml), 24 h",0%
same,"c-Myc oncoprotein, percentage of control","[4]; Brusatol (25 ng/ml), 4 h",79%
same,"c-Myc oncoprotein, percentage of control","[4]; Brusatol (25 ng/ml), 24 h",10%
same,"c-Myc oncoprotein, percentage of control","[5]; Brusatol (25 ng/ml), 4 h",66%
same,"c-Myc oncoprotein, percentage of control","[5]; Brusatol (25 ng/ml), 24 h",112%
same,"c-Myc oncoprotein, percentage of control","[6]; RS4,11, Brusatol (25 ng/ml), 24 h",10%
same,"c-Myc oncoprotein, percentage of control","[6]; RS4;11, Brusatol (25 ng/ml), 4 h",20%
same,"c-Myc oncoprotein, percentage of control","[7]; Brusatol (25 ng/ml), 4 h",22%
same,"c-Myc oncoprotein, percentage of control","[7]; Brusatol (25 ng/ml), 24 h",41%
same,"c-Myc oncoprotein, percentage of control","[8]; Brusatol (25 ng/ml), 4 h",5%
same,"c-Myc oncoprotein, percentage of control","[8]; Brusatol (25 ng/ml), 24 h",12%
same,"c-Myc oncoprotein, percentage of control","[9]; Brusatol (25 ng/ml), 4 h",66%
same,"c-Myc oncoprotein, percentage of control","[9]; Brusatol (25 ng/ml), 24 h",32%
same,IC50 at 4 days,"[10]; HL-60 cells, HL-60, 4-day incubation, trypan blue exclusion, read-out: cytotoxicity (IC50)",170 ± 1 nM
"COC(=O)[C@@]12OC[C@]34[C@H]([C@@H](O)[C@@H]1O)[C@@]1(C)CC(=O)C(O)=C(C)[C@@H]1C[C@H]3OC(=O)[C@H](OC(=O)/C=C(\C)C(C)C)[C@@H]24 [compound 2, bruceantin]","c-Myc oncoprotein, percentage of control","[1]; Bruceantin (10 ng/ml), 4 h",42%
same,"c-Myc oncoprotein, percentage of control","[1]; Bruceantin (10 ng/ml), 24 h",63%
same,"c-Myc oncoprotein, percentage of control","[2]; Bruceantin (10 ng/ml), 4 h",2%
same,"c-Myc oncoprotein, percentage of control","[2]; Bruceantin (10 ng/ml), 24 h",12%
same,"c-Myc oncoprotein, percentage of control","[3]; Bruceantin (10 ng/ml), 4 h",0%
same,"c-Myc oncoprotein, percentage of control","[3]; Bruceantin (10 ng/ml), 24 h",0%
same,"c-Myc oncoprotein, percentage of control","[4]; Bruceantin (10 ng/ml), 4 h",67%
same,"c-Myc oncoprotein, percentage of control","[4]; Bruceantin (10 ng/ml), 24 h",2%
same,"c-Myc oncoprotein, percentage of control","[5]; Bruceantin (10 ng/ml), 4 h",70%
same,"c-Myc oncoprotein, percentage of control","[5]; Bruceantin (10 ng/ml), 24 h",87%
same,"c-Myc oncoprotein, percentage of control","[6]; RS4;11, Bruceantin (10 ng/ml), 4 h",140%
same,"c-Myc oncoprotein, percentage of control","[6]; RS4;11, Bruceantin (10 ng/ml), 24 h",6%
same,"c-Myc oncoprotein, percentage of control","[7]; Bruceantin (10 ng/ml), 4 h",28%
same,"c-Myc oncoprotein, percentage of control","[7]; Bruceantin (10 ng/ml), 24 h",12%
same,"c-Myc oncoprotein, percentage of control","[8]; Bruceantin (10 ng/ml), 4 h",40%
same,"c-Myc oncoprotein, percentage of control","[8]; Bruceantin (10 ng/ml), 24 h",44%
same,"c-Myc oncoprotein, percentage of control","[9]; Bruceantin (10 ng/ml), 4 h",44%
same,"c-Myc oncoprotein, percentage of control","[9]; Bruceantin (10 ng/ml), 24 h",40%
same,IC50 at 4 days,[10],40 ± 3 nM
